Among the data in BindingDB's records for doi:10.1021/acs.jmedchem.9b00506 (Rapt Therapeutics, 2019) are IC50 values, retold here.

Test [1] in a line: Antagonist activity at CCR4 in human CCRF-CEM cells assessed as inhibition of CCL22-mediated chemotaxis in presence of 100% human serum pre-incubated for 30 mins followed by CCL22 addition and measured after 60 mins by chemoTX probe based CellTiter-Glo assay. Background: In ATP-based viability assays light output follows the ATP content of the culture.
Test [2] can be described thus: Antagonist activity at CCR4 in anti-CD3/CD28 stimulated mouse Treg cells assessed as inhibition of CCL22-mediated chemotaxis in presence of 100% human serum pre-incubated for 30 mins followed by CCL22 addition and measured after 60 mins by chemoTX probe based CellTiter-Glo assay.

The structures appear in SMILES notation.

What is called IC50 is the concentration that inhibits the measured activity by half.

Turning to `C[C@@H]1CC(c2cnc3c(C#N)nn([C@H](C)c4ccc(Cl)cc4Cl)c3n2)=CC[C@@H]1N1CCC[C@H]1C(N)=O`, in test [1], the concentration for half-maximal inhibition (IC50) turned out to be 1380 nM. Same read-out and setting: next, `Cc1nn([C@H](C)c2ccc(Cl)cc2Cl)c2nc(N3CC[C@H](N4CCC[C@H]4CCC(N)=O)[C@H](C)C3)cnc12`: 355 nM; `C[C@@H]1CC(c2cnc3c(C#N)nn([C@H](C)c4ccc(Cl)cc4Cl)c3n2)=CC[C@@H]1N1CCC[C@H]1CN`: 638 nM. Consider `C[C@@H]1CC(c2cnc3c(C#N)nn([C@H](C)c4ccc(Cl)cc4Cl)c3n2)=CC[C@@H]1N1CCC[C@H]1CO`, for which the 50% inhibitory concentration (IC50) in test [1] came out at 70 nM; in test [2] it was 165 nM. As to `C[C@@H]1CC(c2cnc3c(C#N)nn([C@H](C)c4ccc(Cl)cc4Cl)c3n2)=CC[C@@H]1N1CCC[C@H]1C`, the concentration for half-maximal inhibition (IC50) turned out to be 44 nM in test [1] and 325 nM in test [2]. Consider `Cc1nn([C@H](C)c2ccc(Cl)cc2Cl)c2nc(C3=CC[C@H](N4CCC[C@H]4CO)[C@H](C)C3)cnc12`, for which the IC50 in test [1] stood at 179 nM. Consider `Cc1nn([C@H](C)c2ccc(Cl)cc2Cl)c2nc(N3CC[C@H](N4CCCCC4)[C@H](C)C3)cnc12`, for which the IC50 in test [1] stood at 361 nM. Consider `Cc1nn([C@H](C)c2ccc(Cl)cc2Cl)c2nc(N3CC[C@H](N4CCC[C@H]4CCS(N)(=O)=O)[C@H](C)C3)cnc12`, for which the IC50 in test [1] came out at 259 nM. Take `Cc1nn([C@H](C)c2ccc(Cl)cc2Cl)c2nc(N3CC[C@H](N4CCC[C@H]4CCC#N)[C@H](C)C3)cnc12`: the IC50 in test [1] turned out to be 865 nM. Same read-out and setting: in the case of `C[C@@H]1CC(c2cnc3c(C#N)nn([C@H](C)c4ccc(Cl)cc4Cl)c3n2)=CC[C@@H]1N1CCC[C@H]1C(C)(C)O` it was 1200 nM.
